Data: patent publication US10317417B2, “Buccal cell diagnosis of arrhythmogenic cardiomyopathy (ACM)” (Beth Israel Deaconess Medical Center, Inc., priority 2015, dated 2019)

System: cultured buccal mucosa cells from ACM patients and gene carriers
Experiment: Immunostaining of cultured buccal mucosa cells after incubation with SB216763
Assay type: cell-based, human
Parameters: dose or concentration left out as unconfirmed
Details: cultured buccal mucosa cells from ACM patients and unaffected gene carriers, confocal microscopy
Procedure: The oral cavity was first rinsed thoroughly with antiseptic mouthwash. Buccal mucosa cells were collected with a sterile toothbrush which was lightly scraped on the inside of both cheeks for ˜2 minutes. The oral cavity was washed with 15 ml of sterile saline which was collected in a centrifuge tube. The toothbrush itself was washed in an additional 10 ml of saline. The same process was repeated one or more times. The resultant cell suspension was centrifuged at 3000 g for 5 minutes. The pellet was washed once in sterile PBS, re-centrifuged and subsequently re-suspended in 20 ml of PBS supplemented with 5% penicillin/streptomycin and 7 mM fungizone for 30 minutes. The cells were then washed twice in PBS, reconstituted in KGM™-CD chemically defined keratinocyte growth medium (LONZA) and seeded on matrigel-coated chamber slides, where they were maintained at 37° C., 5% CO2 for up to 7 days. Selected cultures were incubated with SB216763 ([…]) for 24 hours prior to immunostaining. Buccal mucosa cultures were washed in PBS, fixed in 4% paraformaldehyde and, after being washed 3 additional times in PBS, were immunostained as described above with mouse monoclonal anti-plakoglobin (Sigma) or mouse monoclonal anti-Cx43 (Millipore) primary antibodies. All immunostained preparations were imaged at 40× using a ZEISS inverted confocal microscope.

Cn1cc(C2=C(c3ccc(Cl)cc3Cl)C(=O)NC2=O)c2ccccc21 [SB216763]
Cx43 signal distribution: normalized
plakoglobin signal distribution: normalized
